The values that follow come from patent US20180289637A1, “SUBSTITUTED CYCLOHEXANONES” (CLEXIO BIOSCIENCES LTD., priority 2016, published 2018).

Each structure is given as a SMILES string.

Data set [1] concerns SD male rats. The experiment in a line: Forced Swim Test (rats), Example 14. It is filed as in vivo. The procedure:
The compounds were prepared by a chemist and coded, so the researcher was blinded to the treatment.

The nature of data set [2]: Oral Single Dose PK Study in Rats. Here is the method: Male SD rats, 3 per timepoint, alternative timepoints, were used. […] Plasma was sampled at 10 min, 30 min, 1 h, 2 h, 3 h, 4 h, 7 h, 12 h, 24 h, and 30 h. The PK of the parent compound (deuterated and non-deuterated), as well as norketamine (deuterated and non-deuterated), 6-OH-norketamine (deuterated and non-deuterated), and dehydronorketamine (deuterated and non-deuterated) were analyzed.

In the next data set the test system is C57Bl/6 strain mice. The experiment in a line: Tail Suspension Test (mice), Example 13. Particulars: 120 mg/kg oral gavage.
Data set [3] in a line: Stability of alpha-d2-(R/S)-ketamine in phosphate-buffered saline at various pH levels. It is filed as physicochemical. The procedure: Incubations of (d2) (R/S)-ketamine (e.g., 1 μM) with PBS (pH 2.0, 7.4 and 8.4) were carried out using a Tecan Liquid Handling System (Tecan), or equivalent, at 37±1° C. in 0.2-mL incubation mixtures (final volume) containing PBS, at the final concentrations indicated in a 96-well plate format. The test article was added to the incubation mixtures in water. […] Incubations were carried out in triplicate with an exception for zero-time samples (which were incubated in quadruplicate). The samples were centrifuged (e.g., 920×g for 10 min at 10° C.) and the supernatant fractions analyzed by LC-MS/MS. Non-deuterated (d0) (R/S)-ketamine was used as an internal standard. The amount of unchanged test article and formation of non-deuterated (d0) (R/S)-ketamine was monitored based on peak area ratio of the analyte/internal standard.

A short description of data set [4]: In vitro metabolism in rat liver microsomes. Particulars: 15 min, 10 μM, listed as d2 S-ketamine. Here is the method:
(§1) Incubations were initiated by the addition of nicotinamine adenine dinucleotide phosphate (NADPH, 1 mM) and terminated by the addition of methanol. Samples were vortex mixed, stored on ice, and the samples were centrifuged at 1400×g for 5 minutes. Supernatants were removed from the microsome pellets and stored in new tubes at approximately −20° C. until analysis.
(§2) Metabolites generated in microsome incubation samples were characterized by LC-MS/MS using a LTQ Orbitrap XL with electrospray ionization in positive ion mode. Semi-quantitation of the metabolites present in the samples was based on LC MS peak areas of the putative metabolites.

Data set [5] in a line: In vitro metabolism in human liver microsomes. To be noted: 30 min, 10 μM, listed as d2 S-ketamine. The procedure: as §1, §2
The test system of data set [6] is SD male rats. The experiment in a line: Forced Swim Test (rats), Example 12.
The nature of data set [7]: In Vitro Liver Microsomal Stability Assay. Particulars: 1 μM, 0.5 mg per mL liver microsomal protein, about 37° C.
Protocol: Test articles were added for a final assay concentration of 1 μM and incubated at about 37° C. Reactions were started by addition of the cofactor, and were stopped at four designated time points (0, 15, 30 and 60 min) by the addition of an equal volume of stop reagent (e.g., acetonitrile containing an internal standard, 0.2 mL). Samples were then centrifuged at 920×g centrifugal force for 10 min at 10° C. to precipitate the proteins. Supernatants were analysed by LC/MS/MS.
For another data set, the system named is NMDA receptor. To be noted: inhibition of MK-801 binding; cited from earlier work.
The conditions of data set [8]: in vivo; cited from earlier work.
Setting [9] is: male, SD, rat, plasma, po, 15 mg/kg.
The mark [10] stands for this setting: male, SD, rat, plasma, po, 15 mg/kg, AUC0-t of Esketamine (deuterated and non-deuterated), 15 mg/kg p.o., rats.
The mark [11] stands for this setting: male, SD, rat, plasma, po, 15 mg/kg, AUC0-t, 15 mg/kg p.o., male SD rats.
The mark [12] stands for this setting: male, SD, rat, plasma, po, 60 mg/kg.
Setting [13] is: male, SD, rat, plasma, po, 60 mg/kg, AUC0-t of Esketamine (deuterated and non-deuterated), 60 mg/kg p.o., rats.
Setting [14] is: male, SD, rat, plasma, po, 60 mg/kg, AUC0-t, 60 mg/kg p.o., male SD rats.

In the case of `CN[C@]1(c2ccccc2Cl)CCCCC1=O` [Esketamine, S-ketamine, reference compound], the “reduction in immobility time” value in the data set with SD male rats [1] (30 mg/kg, 30 min before the test (route printed as orally, i.p. in table)) was 60%. In addition, in [2] (15 and 60 mg/kg p.o., rats), the “Dehydronorketamine as metabolite (in words)” value is reported as “minor metabolite”. The figures for the Cmax in [2] (setting [9]) and in [2] (setting [12]) were 200 ng/mL and 165 ng/mL, respectively. Moreover, the Tmax in [2] (setting [9]) is 0.5 h. Further, the AUC(0-t) in [2] (setting [10]) is 183 ng·h/mL; in data set [2] (setting [11]), 183 ng·h/mL; in [2] (setting [13]), 498 ng·h/mL; in data set [2] (male, SD, rat, plasma, po, 60 mg/kg, AUC0-t of Esketamine, value in brackets (24 hr time point excluded), 60 mg/kg p.o., rats), 311 ng·h/mL; in data set [2] (setting [14]), 498 ng·h/mL; in [2] (male, SD, rat, plasma, po, 60 mg/kg, AUC0-t, 24 hr time point excluded, 60 mg/kg p.o., 24 hr time point excluded (7 hr was BLQ)), 311 ng·h/mL. In the data set on C57Bl/6 strain mice, the adverse clinical symptoms entry was “adverse clinical symptoms of vocalization, ataxia and drowsiness”. For the same molecule, in the data set on C57Bl/6 strain mice (20 minutes after the oral gavage), the mortality result is given as “One of the animals was found dead”.

`[2H]C1([2H])CCCC(NC)(c2ccccc2Cl)C1=O` (racemic) [d2-ketamine, alpha-d2-(R/S)-ketamine]: in [3] (PBS pH 2.0, 37±1° C.), the “Mean percent remaining (0 min)” value amounted to 100%, the “Mean percent remaining (30 min)” value is on record as 94.6%, the “Mean percent remaining (60 min)” value stood at 98.8% and the “Mean percent remaining (120 min)” value is 93.9%. Besides, in data set [3] (PBS pH 7.4, 37±1° C.), the “Mean percent remaining (0 min)” value came out at 100%, the “Mean percent remaining (30 min)” value was 98.3%, the “Mean percent remaining (60 min)” value is on record as 99.0% and the “Mean percent remaining (120 min)” value was 96.0%. In [3] (PBS pH 8.4, 37±1° C.), the “Mean percent remaining (0 min)” value turned out to be 100%, the “Mean percent remaining (30 min)” value is given as 96.4%, the “Mean percent remaining (60 min)” value amounted to 99.6% and the “Mean percent remaining (120 min)” value is 95.1%.

On to `[2H]C1([2H])CCC[C@](NC)(c2ccccc2Cl)C1=O` [Example 1, (2S)-2-(2-chlorophenyl)-6,6-dideuterio-2-[deuterio(methyl)amino]cyclohexanone, deuterium chloride], for which the “% Peak Area, component S-ketamine (parent remaining)” value in data set [4] was 2.6%; in data set [5], 33.6%. Moreover, the “effect at 30 mg/kg (in words)” value in the data set with SD male rats [1] (30 min before the test) is on record as “less pronounced compared to the lower dose”. For the same molecule, the “6-OH norketamine levels (in words)” value in data set [2] (15 and 60 mg/kg p.o., rats) is “lower”. Also, the “Dehydronorketamine as metabolite (in words)” value in data set [2] (15 and 60 mg/kg p.o., rats) is reported as “minor metabolite”. The “Norketamine levels as compared to esketamine (in words)” value in [2] (15 and 60 mg/kg p.o., rats) is “higher”. Moreover, the Cmax in [2] (setting [9]) is 136 ng/mL; in [2] (setting [12]) it was 163 ng/mL. Also, the AUC(0-t) was determined as 114 ng·h/mL in [2] (setting [10]), 114 ng·h/mL in data set [2] (setting [11]), 268 ng·h/mL in [2] (setting [13]) and 268 ng·h/mL in data set [2] (setting [14]). Moreover, the “plasma exposure to the parent compound (in words)” value in data set [2] (single oral administration of 15 or 60 mg/kg, male SD rats, S-ketamine D2 vs S-ketamine) is reported as “essentially unchanged”. For the same molecule, the “reduction in immobility time” value in the data set with SD male rats [6] (120 mg/kg p.o., 75-90 min after the treatment) was roughly 25%. For the same molecule, the “antidepressant-like effect on immobility time (in words)” value in the data set on SD male rats [6] (60 or 120 mg/kg p.o., 75-90 min after the treatment) is recorded as “dose-response trend”. Besides, in the data set with C57Bl/6 strain mice, the adverse clinical symptoms entry was “adverse clinical symptoms of vocalization, ataxia and drowsiness”. Also, the “increase in degradation half-life as compared to non-isotopically enriched ketamine” value in data set [7] is on record as 18%.

For the molecule `N[C@]1(c2ccccc2Cl)CCCCC1=O` [(S)-norketamine], the “affinity for the NMDA receptor relative to the (R)-enantiomer” value in the data set on NMDA receptor was 8 times.

For the molecule `NC1(c2ccccc2Cl)CCCCC1=O` (racemic) [norketamine, N-desmethylketamine], the elimination half-life in data set [8] is 4 h.

`CNC1(c2ccccc2Cl)CCCCC1=O` (racemic) [Ketamine, ketamine, reference compound]: the elimination half-life in [8] was 2 to 3 h. Besides, the “reduction in immobility time by manual counting” value in the data set with SD male rats [6] (30 mg/kg i.p., 30 min before test) was 54%.
